From patent US11884708B2, “Stapled peptide inhibitors of nemo as potential anti-inflammatory and anti-cancer drugs” (INSTITUT PASTEUR, priority 2015, dated 2024) come the findings set out here.

Structures are written as SMILES. Read-outs that look alike come from different tables or passages of the source. Where a SMILES comes first, the peptide text is derived from it. Bridges are numbered along the chain shown (N, C = ends). [ ]: non-standard residue; d: D form. The star is where a group is joined. BODIPYFLEthylmaleimide = Cc1cc(C)n2c1C=C1C=CC(CCC(=O)NCCN3C(=O)CC(*)C3=O)=[N+]1[B-]2(F)F; R8 = C=CCCCCCC[C@@](C)(N)C(=O)O; S5 = C=CCCC[C@](C)(N)C(=O)O Bounds are passed on as bounds.

Data set [1] has as its target CC2-LZ domain of NEMO (Mus musculus, UniProt O88522). Kind of data set: Fluorescence anisotropy/polarization binding assay. The following applies: for Kd: fixed peptide concentration 0.1 μM; for Binding affinity (FP) at 10 μM: fixed peptide concentration 10 μM. Background: Polarisation of emitted light reports the rotation of a fluorescent probe.
Protocol: Measurements were performed on a Tecan infinite F500 equipped with polarizing filters and using excitation and emission wavelengths at 485 nm and 535 nm, respectively. Anisotropy data were calculated using the Magellan software version 6.5. Prior experiments, the mouse CC2-LZ was extensively dialyzed in binding buffer containing 20 mM HEPES pH 7.4, 100 mM NaCl, and 0.05% P20 detergent (v/v). All experiments were performed in a 384 well plate (vol 25 μl) at room temperature. The BODIPY®-labeled peptide concentrations were fixed at 0.1 or 10 μM whereas the CC2-LZ concentration varied from 0 to 100 μM. Reference calibrated at 22 mP, was based on the fluorescence of the peptide alone. Each experimental binding curve was determined from at least 10 independent concentration points. The G-factor was calculated as previously described in Agou et al. [7], with a value of 0.75, which was observed constant within 5% upon all titrations. For analysis, the blank value corresponding to the value of buffer alone, was subtracted from all titration data.
All NEMO peptides were conjugated to an extra N-terminal cysteine with the fluorophore BODIPY® or FITC to determine their binding affinity for the CC2-LZ domain of NEMO (also called NOA or UBAN) by fluorescence polarization. For each peptide titration, various concentration of the target ranging from 0 to 100 μM and a fixed concentration of peptide at 0.1 or 10 μM were used at 25° C. […] For these reasons, all further titration experiments were performed with a fixed peptide concentration of 0.1 μM unless otherwise indicated.
Data set [2] can be described thus: CD spectroscopy, α-helical content. The following applies: 50 μM peptide, phosphate buffer pH 7.0, UBI in TFE taken as 100%. In kind it is physicochemical.
Data set [3] is described as follows: Temperature-induced denaturation followed by CD. The class given is physicochemical. The conditions noted are these: 30 μM or 300 μM, ΔCp ≈ 0; for Tm: thermal denaturation by CD; for ΔH: van't Hoff enthalpy change at Tm. The protocol: Temperature-induced denaturation experiments were performed by measuring the ellipticity at 222 nm from 1° C. to 95° C. in 1° C. steps, at a rate of 1° C./min, with a 2 nm bandwidth. Thermodynamic parameters including the melting temperature (Tm) and the van't Hoff enthalpy change at the melting temperature (ΔHm) were determined by fitting the denaturation curves with the Gibbs-Helmholtz equation as described elsewhere, [10]. The heat capacity change (ΔCp) was assumed to be 0 as judged by ΔHm which yielded similar values within 10% at two independent peptide concentrations (30 and 300 μM). The ellipticity was converted to differential extinction coefficient Δε (M^−1·cm^−1) per residue taking into account the peptide concentration determined by amino acid analysis.
Thermal stability of the peptides was also investigated by performing thermal denaturation profiles followed by CD (FIGS. 1 C and D and Table III). […] Indeed, the helicity of UBI-Aib (49%) is only 1.16-fold increased at 1° C. compared to UBI (42%), while its melting temperature (Tm=−8° C.) is 2.25 times higher than that of UBI (Tm=−18° C.).

The mark [4] stands for this setting: read-out: Binding affinity (FP) at 0.1 μM.

Chain of CC2-LZ domain of NEMO (O88522 242-343 limits assumed): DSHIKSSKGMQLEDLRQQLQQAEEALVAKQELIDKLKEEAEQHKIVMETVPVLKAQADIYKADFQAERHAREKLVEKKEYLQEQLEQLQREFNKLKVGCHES

Turning to `CC[C@H](C)[C@H](NC(=O)[C@H](CCCCN)NC(=O)[C@@H](NC(=O)[C@H](CCC(N)=O)NC(=O)[C@H](CCCNC(=N)N)NC(=O)[C@H](CSC1CC(=O)N(CCNC(=O)CCC2=[N+]3C(=Cc4c(C)cc(C)n4[B-]3(F)F)C=C2)C1=O)NC(C)=O)[C@@H](C)CC)C(=O)N[C@@H](Cc1c[nH]c2ccccc12)C(=O)N[C@@H](Cc1ccccc1)C(=O)N[C@@H](CCC(N)=O)C(=O)N[C@@H](CC(N)=O)C(=O)N[C@@H](CCCNC(=N)N)C(=O)N[C@@H](CCCNC(=N)N)C(=O)N[C@@H](CCSC)C(=O)N[C@@H](CCCCN)C(=O)N[C@@H](Cc1c[nH]c2ccccc12)C(=O)N[C@@H](CCCCN)C(=O)N[C@@H](CCCCN)C(=O)N[C@@H](CC(C)C)C(=O)N[C@@H](CCCCN)C(=O)N[C@@H](C)C(=O)N[C@@H](CCC(N)=O)C(=O)N[C@@H](C)C(=O)N[C@]1(C)CCCCCCC=CCCC[C@@](C)(C(=O)N[C@@H](C)C(=O)N[C@@H](CCC(=O)OC)C(=O)N[C@@H](CCCNC(=N)N)C(=O)N[C@@H](Cc2c[nH]cn2)C(=O)N[C@@H](C)C(=O)N[C@@H](CCCNC(=N)N)C(=O)N[C@@H](CCC(=O)OC)C(=O)N[C@@H](CCCCN)C(N)=O)NC(=O)[C@H](Cc2ccccc2)NC(=O)[C@H](CCCNC(=N)N)NC(=O)[C@H](C)NC(=O)[C@H](CCCCN)NC(=O)[C@H](Cc2ccc(O)cc2)NC(=O)[C@H]([C@@H](C)CC)NC1=O` (some centres unmarked) [A-UBI-SAHN D306-Q313 OMe, RQIKIWFQNRRMKWKKLKAQAX2IYKARFX5AX7RHARX9K] (Ac-C(BODIPYFLEthylmaleimide)RQIKIWFQNRRMKWKKLKAQA[R8]IYKARF[S5]AE(OMe)RHARE(OMe)K-NH2; staple 23-30), the Kd in data set [1] (peptides with antennapedia) came out at 0.06 ± 0.01 µM.
As for `CC[C@H](C)[C@@H]1NC(=O)[C@H](CC(=O)O)NC(=O)[C@H](C)NC(=O)[C@H](CCC(N)=O)NC(=O)[C@](C)(NC(=O)[C@H](CCCCN)NC(=O)[C@H](CC(C)C)NC(=O)[C@H](CSC2CC(=O)N(CCNC(=O)CCC3=[N+]4C(=Cc5c(C)cc(C)n5[B-]4(F)F)C=C3)C2=O)NC(C)=O)CCCCCC/C=C\CCC[C@@](C)(C(=O)N[C@@H](CCCNC(=N)N)C(=O)N[C@@H](Cc2ccccc2)C(=O)N[C@@H](CCC(N)=O)C(=O)N[C@@H](C)C(=O)N[C@@H](CCC(=O)O)C(=O)N[C@@H](CCCNC(=N)N)C(=O)N[C@@H](Cc2c[nH]cn2)C(=O)N[C@@H](C)C(=O)N[C@@H](CCCNC(=N)N)C(=O)N[C@@H](CCC(=O)O)C(=O)N[C@@H](CCCCN)C(N)=O)NC(=O)[C@H](CCCCN)NC(=O)[C@H](Cc2ccc(O)cc2)NC1=O` (some centres unmarked) [UBI-SAHN A303-A310 (A)] (Ac-C(BODIPYFLEthylmaleimide)LK[R8]QADIYK[S5]RFQAERHAREK-NH2; staple (Z) 4-11; N-terminus and C-terminus assumed), the “Binding affinity (FP) at 10 μM” value in data set [1] was “weak binding”. The figures for the “α-helical content at 1° C.” value in data set [2], in data set [2] (listed as UBI-SAHNA303-A310 (A)) and in data set [2] (listed as UBI-SAHNA310-A310 (A)) were “A: 63% -”, 63% and 63%, respectively. In addition, the ΔS entry in data set [3] is listed as “A: −21 - cal. mol^−1.K^−1”. For the same molecule, the Tm result in data set [3] is “A: 5 - B: C°”. Also, the ΔH entry in data set [3] is reported as “A: −5950 - (cal. mol)^−1”.
With `CC(=O)N[C@@H](CSC1CC(=O)N(CCNC(=O)CCC2=[N+]3C(=Cc4c(C)cc(C)n4[B-]3(F)F)C=C2)C1=O)C(=O)N[C@@H](CCC(=O)O)C(=O)N[C@@H](CC(C)C)C(=O)N[C@@H](C)C(=O)N[C@@H](CCC(N)=O)C(=O)N[C@@H](CC(C)C)C(=O)N[C@@H](CCC(N)=O)C(=O)N[C@@H](C)C(=O)N[C@@H](CCC(=O)O)C(=O)N[C@@H](CC(C)C)C(=O)N[C@@H](CC(=O)O)C(=O)N[C@]1(C)CCCCCCC=CCCC[C@@](C)(C(=O)N[C@@H](CC(=O)O)C(=O)N[C@@H](CCCCN)C(=O)N[C@@H](CCC(N)=O)C(=O)N[C@@H](CCC(=O)O)C(=O)N[C@@H](CC(C)C)C(=O)N[C@@H](CCCNC(=N)N)C(=O)N[C@@H](CCCCN)C(=O)N[C@@H](CC(C)C)C(N)=O)NC(=O)[C@H](CCC(N)=O)NC(=O)[C@H](C(C)C)NC(=O)[C@H](C(C)C)NC(=O)[C@H](C)NC(=O)[C@H](CCC(N)=O)NC(=O)[C@H](C(C)C)NC1=O` (single isomer, unassigned) [Co-SAHN I307-A314 (A), ELAQLQAELDXVQAVVQXDKQELRKL, reference compound], the Kd in data set [1] (setting [4]) was above 1850 µM. In addition, the “α-helical content at 1° C.” value in data set [2] is recorded as “A: 45% -”. Moreover, in data set [3], the ΔS result was “A: −24 - cal. mol^−1.K^−1”, the Tm entry is reported as “A: 21 - B: C°” and the ΔH result is reported as “A: −6970 - (cal. mol)^−1”.
`CC[C@H](C)[C@@H]1NC(=O)[C@](C)(NC(=O)[C@H](C)NC(=O)[C@H](CCC(N)=O)NC(=O)[C@H](C)NC(=O)[C@H](CCCCN)NC(=O)[C@H](CC(C)C)NC(=O)[C@H](CSC2CC(=O)N(CCNC(=O)CCC3=[N+]4C(=Cc5c(C)cc(C)n5[B-]4(F)F)C=C3)C2=O)NC(C)=O)CCCCCCC=CCCC[C@@](C)(C(=O)N[C@@H](C)C(=O)N[C@@H](CCC(=O)O)C(=O)N[C@@H](CCCNC(=N)N)C(=O)N[C@@H](Cc2c[nH]cn2)C(=O)N[C@@H](C)C(=O)N[C@@H](CCCNC(=N)N)C(=O)N[C@@H](CCC(=O)O)C(=O)N[C@@H](CCCCN)C(N)=O)NC(=O)[C@H](Cc2ccccc2)NC(=O)[C@H](CCCNC(=N)N)NC(=O)[C@H](C)NC(=O)[C@H](CCCCN)NC(=O)[C@H](Cc2ccc(O)cc2)NC1=O` (single isomer, unassigned) [UBI-SAHN D306-Q313 (B)]: the “Binding affinity (FP) at 10 μM” value in data set [1] is “Very weak”. Also, the “α-helical content at 1° C.” value in data set [2] was “B: 76%”. Moreover, in data set [3], the ΔS entry is recorded as “B: −17 cal. mol^−1.K^−1”, the Tm amounted to 35 ± 0.3 C° and the ΔH entry is recorded as “B: −5290 (cal. mol)^−1”.
Consider `CC[C@H](C)[C@@H]1NC(=O)[C@](C)(NC(=O)[C@H](C)NC(=O)[C@H](CCC(N)=O)NC(=O)[C@H](C)NC(=O)[C@H](CCCCN)NC(=O)[C@H](CC(C)C)NC(=O)[C@H](CSC2CC(=O)N(CCNC(=O)CCC3=[N+]4C(=Cc5c(C)cc(C)n5[B-]4(F)F)C=C3)C2=O)NC(C)=O)CCCCCCC=CCCC[C@@](C)(C(=O)N[C@@H](C)C(=O)N[C@@H](CCC(=O)O)C(=O)N[C@@H](CCCNC(=N)N)C(=O)N[C@@H](Cc2c[nH]cn2)C(=O)N[C@@H](C)C(=O)N[C@@H](CCCNC(=N)N)C(=O)N[C@@H](CCC(=O)O)C(=O)N[C@@H](CCCCN)C(N)=O)NC(=O)[C@H](Cc2ccccc2)NC(=O)[C@H](CCCNC(=N)N)NC(=O)[C@H](C)NC(=O)[C@H](CCCCN)NC(=O)[C@H](Cc2ccc(O)cc2)NC1=O` (single isomer, unassigned) [UBI-SAHN D306-Q313 (A)], for which the Kd in data set [1] (setting [4]) was 34 ± 6 µM. Also, the “Binding affinity (FP) at 10 μM” value in data set [1] was “Very weak”. In addition, the “α-helical content at 1° C.” value in data set [2] is “A: 75% -”. Moreover, in data set [3], the ΔS result is given as “A: −16 - cal. mol^−1.K^−1”, the Tm is reported as 35 ± 0.3 C° and the ΔH entry was “A: −4800 - (cal. mol)^−1”.
Consider `CC[C@H](C)[C@H](NC(=O)[C@H](CC(=O)O)NC(=O)[C@H](C)NC(=O)[C@H](CCC(N)=O)NC(=O)[C@H](C)NC(=O)[C@H](CCCCN)NC(=O)[C@H](CC(C)C)NC(=O)[C@H](CCCCN)NC(=O)[C@H](CCCCN)NC(=O)[C@H](Cc1c[nH]c2ccccc12)NC(=O)[C@H](CCCCN)NC(=O)[C@H](CCSC)NC(=O)[C@H](CCCNC(=N)N)NC(=O)[C@H](CCCNC(=N)N)NC(=O)[C@H](CC(N)=O)NC(=O)[C@H](CCC(N)=O)NC(=O)[C@H](Cc1ccccc1)NC(=O)[C@H](Cc1c[nH]c2ccccc12)NC(=O)[C@@H](NC(=O)[C@H](CCCCN)NC(=O)[C@@H](NC(=O)[C@H](CCC(N)=O)NC(=O)[C@H](CCCNC(=N)N)NC(=O)[C@H](CSC1CC(=O)N(CCNC(=O)CCC2=[N+]3C(=Cc4c(C)cc(C)n4[B-]3(F)F)C=C2)C1=O)NC(C)=O)[C@@H](C)CC)[C@@H](C)CC)C(=O)N[C@@H](Cc1ccc(O)cc1)C(=O)N[C@@H](CCCCN)C(=O)N[C@@]1(C)CCCC=CCCC[C@@](C)(C(=O)N[C@@H](CCC(=O)O)C(=O)N[C@@H](CCCNC(=N)N)C(=O)N[C@@H](Cc2c[nH]cn2)C(=O)N[C@@H](C)C(=O)N[C@@H](CCCNC(=N)N)C(=O)N[C@@H](CCC(=O)O)C(=O)N[C@@H](CCCCN)C(N)=O)NC(=O)[C@H](CCC(N)=O)NC(=O)[C@H](Cc2ccccc2)NC(=O)[C@H](CCCNC(=N)N)NC1=O` (some centres unmarked) [A-UBI-SAHN A310-A314, RQIKIWFQNRRMKWKKLKAQADIYKX4RFQX6ERHAREK] (Ac-C(BODIPYFLEthylmaleimide)RQIKIWFQNRRMKWKKLKAQADIYK[S5]RFQ[S5]ERHAREK-NH2; staple 27-31), for which the Kd in data set [1] (peptides with antennapedia, read-out: KD) stood at 0.2 µM. Further, in data set [2], the “α-helical content at 1° C.” value worked out at 57%.
